In patent US20210032257A1, “(E)-1-(4-(DIMETHYLAMINO)BUT-2-ENOYL)PYRROLIDIN-3-YL 4-((3-ISOPROPYL-5-METHYLPYRAZOLO[1,5-A]PYRIMIDIN-7-YL)AMINO)PIPERIDINE-1-CARBOXYLATE FOR INHIBITING CDK7” (Eli Lilly and Company, priority 2017, published 2021):

What was measured:
Experiment in all cases: Biomarker study proliferation (CellTiter-Glo)
Type in all cases: cell-based
A2780 = tested on: A2780
Procedure, shortened: (§1)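 Cell lines were chosen by ARID1A, KMT2C, KMT2D and/or RB1 status from COSMIC and cBioportal. Viability after 7 days of treatment was measured by CellTiter-Glo luminescence, with 5 μM staurosporine as the full-inhibition control.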

A673 = tested on: A673
Procedure, shortened: as §1

HCC44 = tested on: HCC44
Procedure, shortened: as §1

HEC108 = tested on: HEC108
Procedure, shortened: as §1

HOS = tested on: HOS
Procedure, shortened: as §1

HS766T = tested on: HS766T
Procedure, shortened: as §1

KARPAS299 = tested on: KARPAS299
Procedure, shortened: as §1

KPL1 = tested on: KPL1
Procedure, shortened: as §1

LN18 = tested on: LN18
Procedure, shortened: as §1

LS411N = tested on: LS411N
Procedure, shortened: as §1

MDAPCA2B = tested on: MDAPCA2B
Procedure, shortened: as §1

NCIH2122 = tested on: NCIH2122
Procedure, shortened: as §1

SHSY5Y = tested on: SHSY5Y
Procedure, shortened: as §1

SKMEL28 = tested on: SKMEL28
Procedure, shortened: as §1

SKMES1 = tested on: SKMES1
Procedure, shortened: as §1

SW780 = tested on: SW780
Procedure, shortened: as §1

T98G = tested on: T98G
Procedure, shortened: as §1

UACC812 = tested on: UACC812
Procedure, shortened: as §1

[1] = Homo sapiens, 168 h, read-out: Anti-proliferation effect IC50

Compound: Cc1cc(NC2CCN(C(=O)O[C@H]3CCN(C(=O)/C=C/CN(C)C)C3)CC2)n2ncc(C(C)C)c2n1 [Example 1, [(3S)-1-[(E)-4-(dimethylamino)but-2-enoyl]pyrrolidin-3-yl] 4-[(3-isopropyl-5-methyl-pyrazolo[1,5-a]pyrimidin-7-yl)amino]piperidine-1-carboxylate]
- Anti-proliferation effect % Inh. (A2780; A2780, OVARY, 7 days): 74%
- Anti-proliferation effect Outcome (A2780; A2780, OVARY, 7 days): Cytotoxic (cytotoxic (IC50<1 μM and % inhibition ≥70%))
- IC50 (A2780; Homo sapiens, A2780, 168 h, read-out: Anti-proliferation effect IC50): 0.052 µM
- Anti-proliferation effect % Inh. (A673; A673, BONE, 7 days): 96%
- Anti-proliferation effect Outcome (A673; A673, BONE, 7 days): Cytotoxic (cytotoxic (IC50<1 μM and % inhibition ≥70%))
- IC50 (A673; Homo sapiens, A673, 168 h, read-out: Anti-proliferation effect IC50): 0.014 µM
- Anti-proliferation effect % Inh. (HCC44; HCC44, LUNG, 7 days): 48%
- Anti-proliferation effect Outcome (HCC44; HCC44, LUNG, 7 days): Cytostatic (cytostatic (IC50<1 μM and % inhibition <70%))
- IC50 (HCC44; Homo sapiens, HCC44, 168 h, read-out: Anti-proliferation effect IC50): 0.131 µM
- IC50 (HEC108; 168 h, read-out: Anti-proliferation effect IC50): 0.031 µM
- Anti-proliferation effect % Inh. (HEC108; HEC108, ENDOMETRIUM, 7 days): 90%
- Anti-proliferation effect Outcome (HEC108; HEC108, ENDOMETRIUM, 7 days): Cytotoxic (cytotoxic (IC50<1 μM and % inhibition ≥70%))
- Anti-proliferation effect % Inh. (HOS; BONE, 7 days): 72%
- Anti-proliferation effect Outcome (HOS; BONE, 7 days): Cytotoxic (cytotoxic (IC50<1 μM and % inhibition ≥70%))
- IC50 (HOS; [1]): 0.09 µM
- Anti-proliferation effect % Inh. (HS766T; HS766T, PANCREAS, 7 days): 72%
- Anti-proliferation effect Outcome (HS766T; HS766T, PANCREAS, 7 days): Cytotoxic (cytotoxic (IC50<1 μM and % inhibition ≥70%))
- IC50 (HS766T; Hs766T, 168 h, read-out: Anti-proliferation effect IC50): 0.062 µM
- IC50 (KARPAS299; Homo sapiens, KARPAS-299, 168 h, read-out: Anti-proliferation effect IC50): 0.069 µM
- Anti-proliferation effect % Inh. (KARPAS299; KARPAS299, BLOOD, 7 days): 78%
- Anti-proliferation effect Outcome (KARPAS299; KARPAS299, BLOOD, 7 days): Cytotoxic (cytotoxic (IC50<1 μM and % inhibition ≥70%))
- Anti-proliferation effect % Inh. (KPL1; KPL1, BREAST, 7 days): 43%
- Anti-proliferation effect Outcome (KPL1; KPL1, BREAST, 7 days): Cytostatic (cytostatic (IC50<1 μM and % inhibition <70%))
- IC50 (KPL1; KPL-1, 168 h, read-out: Anti-proliferation effect IC50): 0.668 µM
- IC50 (LN18; Homo sapiens, LN-18, 168 h, read-out: Anti-proliferation effect IC50): 0.015 µM
- Anti-proliferation effect % Inh. (LN18; LN18, CNS, 7 days): 91%
- Anti-proliferation effect Outcome (LN18; LN18, CNS, 7 days): Cytotoxic (cytotoxic (IC50<1 μM and % inhibition ≥70%))
- IC50 (LS411N; Homo sapiens, LS-411N, 168 h, read-out: Anti-proliferation effect IC50): 1 µM
- Anti-proliferation effect % Inh. (LS411N; LS411N, INTESTINE, 7 days): 45%
- Anti-proliferation effect Outcome (LS411N; LS411N, INTESTINE, 7 days): Insensitive (insensitive (IC50≥1 μM))
- IC50 (MDAPCA2B; MDA-PCa-2b, 168 h, read-out: Anti-proliferation effect IC50): 6.27 µM
- Anti-proliferation effect % Inh. (MDAPCA2B; MDAPCA2B, PROSTATE, 7 days): 17%
- Anti-proliferation effect Outcome (MDAPCA2B; MDAPCA2B, PROSTATE, 7 days): Insensitive (insensitive (IC50≥1 μM))
- IC50 (NCIH2122; Homo sapiens, NCI-H2122, 168 h, read-out: Anti-proliferation effect IC50): 0.078 µM
- Anti-proliferation effect % Inh. (NCIH2122; NCIH2122, LUNG, 7 days): 85%
- Anti-proliferation effect Outcome (NCIH2122; NCIH2122, LUNG, 7 days): Cytotoxic (cytotoxic (IC50<1 μM and % inhibition ≥70%))
- IC50 (SHSY5Y; Homo sapiens, SH-SY5Y, 168 h, read-out: Anti-proliferation effect IC50): 0.059 µM
- Anti-proliferation effect % Inh. (SHSY5Y; SHSY5Y, CNS, 7 days): 95%
- Anti-proliferation effect Outcome (SHSY5Y; SHSY5Y, CNS, 7 days): Cytotoxic (cytotoxic (IC50<1 μM and % inhibition ≥70%))
- IC50 (SKMEL28; Homo sapiens, SK-MEL-28, 168 h, read-out: Anti-proliferation effect IC50): 0.098 µM
- Anti-proliferation effect % Inh. (SKMEL28; SKMEL28, SKIN, 7 days): 61%
- Anti-proliferation effect Outcome (SKMEL28; SKMEL28, SKIN, 7 days): Cytostatic (cytostatic (IC50<1 μM and % inhibition <70%))
- IC50 (SKMES1; Homo sapiens, SK-MES-1, 168 h, read-out: Anti-proliferation effect IC50): 0.028 µM
- Anti-proliferation effect % Inh. (SKMES1; SKMES1, LUNG, 7 days): 80%
- Anti-proliferation effect Outcome (SKMES1; SKMES1, LUNG, 7 days): Cytotoxic (cytotoxic (IC50<1 μM and % inhibition ≥70%))
- IC50 (SW780; Homo sapiens, SW780, 168 h, read-out: Anti-proliferation effect IC50): 0.074 µM
- Anti-proliferation effect % Inh. (SW780; SW780, URINARY, 7 days): 68%
- Anti-proliferation effect Outcome (SW780; SW780, URINARY, 7 days): Cytostatic (cytostatic (IC50<1 μM and % inhibition <70%))
- Anti-proliferation effect % Inh. (T98G; CNS, 7 days): 44%
- Anti-proliferation effect Outcome (T98G; CNS, 7 days): Insensitive (insensitive (IC50≥1 μM))
- IC50 (T98G; [1]): 1.37 µM
- IC50 (UACC812; Homo sapiens, UACC-812, 168 h, read-out: Anti-proliferation effect IC50): 0.076 µM
- Anti-proliferation effect % Inh. (UACC812; UACC812, BREAST, 7 days): 58%
- Anti-proliferation effect Outcome (UACC812; UACC812, BREAST, 7 days): Cytostatic (cytostatic (IC50<1 μM and % inhibition <70%))
